Experimental data reported in US7250413B2, “C-25 carbamate rifamycin derivatives with activity against drug-resistant microbes” (Cumbre Pharmaceuticals Inc., priority 2004, dated 2007).
≈ marks a conversion by molar mass, not a printed value.

Assays:
Assay in all cases: MIC, microbroth dilution
Type in all cases: cell-based
[1] = tested on: Enterococcus faecalis ATCC29212; details: rifS, BHI Broth, 37° C., read-out: MIC
Experimental: (§1) Representative compounds were assayed for antimicrobial activity as follows: Minimum Inhibitory Concentrations (“MICs”) were determined by the microbroth dilution method as per NCCLS guidelines (National Committee for Clinical Laboratory Standards, 2000), except that all growth incubations were conducted at 37° C. Bacterial cultures were tested in the following bacteriological media: S. aureus, S. epidermidis, and E. coli in Cation-Adjusted Mueller-Hinton Broth, S. pneumoniae in THY Broth supplemented with 1 mg/mL catalase under 5% CO2 atmosphere, S. pyogenes in THY Broth, E. faecalis in BHI Broth, H. influenzae in BHI Broth supplemented with 0.75 μL of 1 mg/mL NAD and 150 μL of 1 mg/ml hematin per 5 mL, and M smegmatis in Middlebrook Broth plus ADC Enrichment.

[2] = tested on: Staphylococcus aureus ATCC29213; details: rifS, Cation-Adjusted Mueller-Hinton Broth, 37° C., read-out: MIC
Experimental: as §1

[3] = tested on: Mycobacterium smegmatis ATCC700084; details: Mycolicibacterium smegmatis, ATCC700084; rifS; Middlebrook Broth plus ADC Enrichment, 37° C.; read-out: MIC
Experimental: as §1

| Structure (SMILES) | MIC [1] | MIC [2] | MIC [3] |
| --- | --- | --- | --- |
| CO[C@H]1/C=C/O[C@@]2(C)Oc3c(C)c(O)c4c(c3C2=O)C(=O)C(N2CCOCC2)=C(NC(=O)/C(C)=C\C=C\[C@H](C)[C@H](O)[C@@H](C)[C@@H](O)[C@@H](C)[C@H](OC(=O)NCCN2CCN(C)CC2)[C@@H]1C)C4=O [Example 9, 25-O-Desacetyl-(1-carbonyl-2-(4-methyl-piperazin-1-yl)-ethylamine) 3-morpholino rifamycin S] | 0.25 to 62 µg/mL (≈ 0.275 to 68.3 µM) | 0.002 to 1.95 µg/mL (≈ 0.0022 to 2.15 µM) | 0.063 to 31 µg/mL |
| CCN(CC)C(=O)O[C@H]1[C@H](C)[C@H](O)[C@H](C)[C@@H](O)[C@@H](C)/C=C/C=C(/C)C(=O)NC2=C(N3CCOCC3)C(=O)c3c(c(O)c(C)c4c3C(=O)[C@@](C)(O/C=C/[C@H](OC)[C@H]1C)O4)C2=O [Example 10, 25-O-Desacetyl-(1-carbonyl-2-diethylamine) 3-morpholino rifamycin S] | 0.25 to 62 µg/mL (≈ 0.298 to 74 µM) | 0.002 to 1.95 µg/mL (≈ 0.00239 to 2.33 µM) | 0.063 to 31 µg/mL |
| CO[C@H]1/C=C/O[C@@]2(C)Oc3c(C)c(O)c4c(c3C2=O)C(=O)C(N2CCOCC2)=C(NC(=O)/C(C)=C\C=C\[C@H](C)[C@H](O)[C@@H](C)[C@@H](O)[C@@H](C)[C@H](OC(=O)NCCCn2ccnc2)[C@@H]1C)C4=O [Example 11, 25-O-Desacetyl-(1-carbonyl-3-imidazol-1-yl-propylamine) 3-morpholino rifamycin S] | 0.25 to 62 µg/mL (≈ 0.281 to 69.7 µM) | 0.002 to 1.95 µg/mL (≈ 0.00225 to 2.19 µM) | 0.063 to 31 µg/mL |
| CO[C@H]1/C=C/O[C@@]2(C)Oc3c(C)c(O)c4c(c3C2=O)C(=O)C(N2CCOCC2)=C(NC(=O)/C(C)=C\C=C\[C@H](C)[C@H](O)[C@@H](C)[C@@H](O)[C@@H](C)[C@H](OC(=O)N2CCN(c3ccc(F)cc3)CC2)[C@@H]1C)C4=O [Example 12, 25-O-Desacetyl-(1-carbonyl-1-(4-fluorophenyl)-piperazine) 3-morpholino rifamycin S] | 0.25 to 62 µg/mL (≈ 0.265 to 65.6 µM) | 0.002 to 1.95 µg/mL (≈ 0.00212 to 2.06 µM) | 0.063 to 31 µg/mL |
| CO[C@H]1/C=C/O[C@@]2(C)Oc3c(C)c(O)c4c(c3C2=O)C(=O)C(N2CCOCC2)=C(NC(=O)/C(C)=C\C=C\[C@H](C)[C@H](O)[C@@H](C)[C@@H](O)[C@@H](C)[C@H](OC(=O)NCc2cccc(C(F)(F)F)c2)[C@@H]1C)C4=O [Example 13, 25-O-Desacetyl-(carbonyl-1-(3-trifluoromethylbenzylamino)) 3-morpholino rifamycin S] | 0.25 to 62 µg/mL (≈ 0.266 to 66 µM) | 0.002 to 1.95 µg/mL (≈ 0.00213 to 2.07 µM) | 0.063 to 31 µg/mL |
| CO[C@H]1/C=C/O[C@@]2(C)Oc3c(C)c(O)c4c(c3C2=O)C(=O)C(N2CCOCC2)=C(NC(=O)/C(C)=C\C=C\[C@H](C)[C@H](O)[C@@H](C)[C@@H](O)[C@@H](C)[C@H](OC(=O)N2CCCC2)[C@@H]1C)C4=O [Example 14, 25-O-Desacetyl-(carbonyl-1-pyrrolidino) 3-morpholino rifamycin S] | 0.25 to 62 µg/mL (≈ 0.299 to 74.2 µM) | 0.002 to 1.95 µg/mL (≈ 0.00239 to 2.33 µM) | 0.063 to 31 µg/mL |
| CO[C@H]1/C=C/O[C@@]2(C)Oc3c(C)c(O)c4c(c3C2=O)C(=O)C(N2CCOCC2)=C(NC(=O)/C(C)=C\C=C\[C@H](C)[C@H](O)[C@@H](C)[C@@H](O)[C@@H](C)[C@H](OC(=O)NCc2ccccc2)[C@@H]1C)C4=O [Example 15, 25-O-Desacetyl (carbonyl-benzyl) 3-morpholino rifamycin S] | 0.25 to 62 µg/mL (≈ 0.287 to 71.1 µM) | 0.002 to 1.95 µg/mL (≈ 0.00229 to 2.24 µM) | 0.063 to 31 µg/mL |
| CO[C@H]1/C=C/O[C@@]2(C)Oc3c(C)c(O)c4c(c3C2=O)C(=O)C(N2CCOCC2)=C(NC(=O)/C(C)=C\C=C\[C@H](C)[C@H](O)[C@@H](C)[C@@H](O)[C@@H](C)[C@H](OC(=O)N2CCN(c3cc5c(cc3F)c(=O)c(C(=O)O)cn5C3CC3)CC2)[C@@H]1C)C4=O [Example 16, 25-O-Desacetyl-(4-carbonyl-1-cyclopropyl-6-fluoro-4-oxo-7-piperazin-1-yl-1,4-dihydro-quinoline-3-carboxylic acid) 3-morpholino rifamycin S] | 0.25 to 62 µg/mL (≈ 0.228 to 56.6 µM) | 0.002 to 1.95 µg/mL (≈ 0.00182 to 1.78 µM) | 0.063 to 31 µg/mL |
| CO[C@H]1/C=C/O[C@@]2(C)Oc3c(C)c(O)c4c(c3C2=O)C(=O)C(N2CCOCC2)=C(NC(=O)/C(C)=C\C=C\[C@H](C)[C@H](O)[C@@H](C)[C@@H](O)[C@@H](C)[C@H](OC(=O)N2CCN(c3c(F)cc5c(=O)c(C(=O)O)cn(C6CC6)c5c3Cl)CC2)[C@@H]1C)C4=O [Example 17, 25-O-Desacetyl-(8-chloro-1-cyclopropyl-7-[4-(1-carbonyl)-piperazin-1-yl]-6-fluoro-4-oxo-1,4-dihydro-quinoline-3-carboxylic acid) 3-morpholino rifamycin S] | 0.25 to 62 µg/mL (≈ 0.221 to 54.8 µM) | 0.002 to 1.95 µg/mL (≈ 0.00177 to 1.72 µM) | 0.063 to 31 µg/mL |

Results, then the compound that gave them:

| MIC [1] | MIC [2] | MIC [3] | Structure (SMILES) |
| --- | --- | --- | --- |
| 0.25 to 62 µg/mL (≈ 0.282 to 69.9 µM) | 0.002 to 1.95 µg/mL (≈ 0.00225 to 2.2 µM) | 0.063 to 31 µg/mL | CO[C@H]1/C=C/O[C@@]2(C)Oc3c(C)c(O)c4c(c3C2=O)C(=O)C(N2CCOCC2)=C(NC(=O)/C(C)=C\C=C\[C@H](C)[C@H](O)[C@@H](C)[C@@H](O)[C@@H](C)[C@H](OC(=O)NCCc2ccccn2)[C@@H]1C)C4=O [Example 18, 25-O-Desacetyl-(1-carbonyl-(2-pyridin-2-yl-ethylamine)) 3-morpholino rifamycin S] |
| 0.25 to 62 µg/mL (≈ 0.28 to 69.5 µM) | 0.002 to 1.95 µg/mL (≈ 0.00224 to 2.19 µM) | 0.063 to 31 µg/mL | CO[C@H]1/C=C/O[C@@]2(C)Oc3c(C)c(O)c4c(c3C2=O)C(=O)C(N2CCOCC2)=C(NC(=O)/C(C)=C\C=C\[C@H](C)[C@H](O)[C@@H](C)[C@@H](O)[C@@H](C)[C@H](OC(=O)NCCc2cccs2)[C@@H]1C)C4=O [Example 19, 25-O-Desacetyl-(1-carbonyl-2-thiophen-2-yl-ethylamine) 3-morpholino rifamycin S] |
| 0.25 to 62 µg/mL (≈ 0.303 to 75.1 µM) | 0.002 to 1.95 µg/mL (≈ 0.00242 to 2.36 µM) | 0.063 to 31 µg/mL | CO[C@H]1/C=C/O[C@@]2(C)Oc3c(C)c(O)c4c(c3C2=O)C(=O)C(N2CCOCC2)=C(NC(=O)/C(C)=C\C=C\[C@H](C)[C@H](O)[C@@H](C)[C@@H](O)[C@@H](C)[C@H](OC(=O)NCCO)[C@@H]1C)C4=O [Example 20, 25-O-Desacetyl-(1-carbonyl-2-aminoethanol) 3-morpholino rifamycin S] |
| 0.25 to 62 µg/mL (≈ 0.314 to 77.9 µM) | 0.002 to 1.95 µg/mL (≈ 0.00251 to 2.45 µM) | 0.063 to 31 µg/mL | CNC(=O)O[C@H]1[C@H](C)[C@H](O)[C@H](C)[C@@H](O)[C@@H](C)/C=C/C=C(/C)C(=O)NC2=C(N3CCOCC3)C(=O)c3c(c(O)c(C)c4c3C(=O)[C@@](C)(O/C=C/[C@H](OC)[C@H]1C)O4)C2=O [Example 21, 25-O-Desacetyl-(carbonyl-methylamino) 3-morpholino rifamycin S] |
| 0.25 to 62 µg/mL (≈ 0.276 to 68.4 µM) | 0.002 to 1.95 µg/mL (≈ 0.00221 to 2.15 µM) | 0.063 to 31 µg/mL | CO[C@H]1/C=C/O[C@@]2(C)Oc3c(C)c(O)c4c(c3C2=O)C(=O)C(N2CCOCC2)=C(NC(=O)/C(C)=C\C=C\[C@H](C)[C@H](O)[C@@H](C)[C@@H](O)[C@@H](C)[C@H](OC(=O)NCc2ccc(Cl)cc2)[C@@H]1C)C4=O [Example 22, 25-O-Desacetyl-(carbonyl-4-chlorobenzyl) 3-morpholino rifamycin S] |
| 0.25 to 62 µg/mL (≈ 0.278 to 68.9 µM) | 0.002 to 1.95 µg/mL (≈ 0.00222 to 2.17 µM) | 0.063 to 31 µg/mL | CO[C@H]1/C=C/O[C@@]2(C)Oc3c(C)c(O)c4c(c3C2=O)C(=O)C(N2CCOCC2)=C(NC(=O)/C(C)=C\C=C\[C@H](C)[C@H](O)[C@@H](C)[C@@H](O)[C@@H](C)[C@H](OC(=O)NCCCc2ccccc2)[C@@H]1C)C4=O [Example 24, 25-O-Desacetyl-(carbonyl-3-phenylpropylamino) 3-morpholino rifamycin S] |
| 0.25 to 62 µg/mL (≈ 0.282 to 70 µM) | 0.002 to 1.95 µg/mL (≈ 0.00226 to 2.2 µM) | 0.063 to 31 µg/mL | CO[C@H]1/C=C/O[C@@]2(C)Oc3c(C)c(O)c4c(c3C2=O)C(=O)C(N2CCOCC2)=C(NC(=O)/C(C)=C\C=C\[C@H](C)[C@H](O)[C@@H](C)[C@@H](O)[C@@H](C)[C@H](OC(=O)NCCc2ccccc2)[C@@H]1C)C4=O [Example 25, 25-O-Desacetyl-(carbonyl-3-phenylethylamino) 3-morpholino rifamycin S] |
| 0.25 to 62 µg/mL (≈ 0.277 to 68.7 µM) | 0.002 to 1.95 µg/mL (≈ 0.00222 to 2.16 µM) | 0.063 to 31 µg/mL | COc1ccc(CNC(=O)O[C@H]2[C@H](C)[C@H](O)[C@H](C)[C@@H](O)[C@@H](C)/C=C/C=C(/C)C(=O)NC3=C(N4CCOCC4)C(=O)c4c(c(O)c(C)c5c4C(=O)[C@@](C)(O/C=C/[C@H](OC)[C@H]2C)O5)C3=O)cc1 [Example 26, 25-O-Desacetyl-(carbonyl-4-methoxybenzylamino) 3-morpholino rifamycin S] |
| 0.25 to 62 µg/mL (≈ 0.219 to 54.4 µM) | 0.002 to 1.95 µg/mL (≈ 0.00175 to 1.71 µM) | 0.063 to 31 µg/mL | COc1c(N2CCN(C(=O)O[C@H]3[C@H](C)[C@H](O)[C@H](C)[C@@H](O)[C@@H](C)/C=C/C=C(/C)C(=O)NC4=C(N5CCOCC5)C(=O)c5c(c(O)c(C)c6c5C(=O)[C@@](C)(O/C=C/[C@H](OC)[C@H]3C)O6)C4=O)C(C)C2)c(F)cc2c(=O)c(C(=O)O)cn(C3CC3)c12 (stereo partly drawn) [Example 28, 25-O-Desacetyl-(carbonyl-1-cyclopropyl-6-fluoro-8-methoxy-7-(3-methyl-piperazin-1-yl)-4-oxo-1,4-dihydro-quinoline-3-carboxylic acid) 3-morpholino rifamycin S] |
| 0.25 to 62 µg/mL (≈ 0.276 to 68.5 µM) | 0.002 to 1.95 µg/mL (≈ 0.00221 to 2.15 µM) | 0.063 to 31 µg/mL | CCN1CC2CN(C(=O)O[C@H]3[C@H](C)[C@H](O)[C@H](C)[C@@H](O)[C@@H](C)/C=C/C=C(/C)C(=O)NC4=C(N5CCOCC5)C(=O)c5c(c(O)c(C)c6c5C(=O)[C@@](C)(O/C=C/[C@H](OC)[C@H]3C)O6)C4=O)CC2C1 (stereo partly drawn) [Example 29, 25-O-Desacetyl-(carbonyl-2-ethyl-octahydro-pyrrolo[3,4-c]pyrrole) 3-morpholino rifamycin S] |
